Data from patent US10947243B2, “Heteroaryl SYK inhibitors” (Boehringer Ingelheim International GmbH, priority 2014, dated 2021).
Where two headings read alike, the source gives them in different places.

How the values were obtained:
[1] = target: FLT3 (Homo sapiens (Human), UniProt P36888); assay: FLT3 Kinase Test (Z'-LYTE); format: biochemical
Description: The activity of FLT3 is measured using the Z′-LYTE™ assay technology from Invitrogen (#PV3191)
The reaction is started by addition of 2.5 μl of the 4×ATP solution.
(§1) Positive controls are reaction mixtures containing no test compound; negative controls (blanks) are reaction mixtures containing no kinase. As a further control, the phosphopeptide solution is added to wells without kinase (=100% phosphorylation control).
The reaction is performed for 1 h at room temperature before 5 μl of the development solution is added. After a further incubation for 1 h at room temperature 5 μl of the stop reagent is added.
The output text file is evaluated in an “MS-Excel-VB-Makro” and “GraphPadPrism” (Version 5) (GraphPad Software Inc.) is used to calculate the results. Data for the inhibition of FLT3 are reported in M. data for the inhibition of the protease are reported in % CTL.

[2] = target: Recombinant human Syk (amino acids 342-635) (Homo sapiens (Human), UniProt P43405); assay: Syk Kinase Test (Kinase Glo luminescence); format: biochemical
Description: (§2) The output file of the reader is a csv file that contains the well number and measured relative light units (RLU). For data evaluation and calculation, the measurement of the negative control was set as 100% ctrl and the measurement of the positive control was set as 0% ctrl. Based on this values the % value for the measurement of each substance concentration was calculated using an Assay Explorer software (Accelrys). Normally, the % ctrl values calculated are between 0% and 100% values but may also occur outside these limits in individual cases based on variability or compound characteristics. The IC50 values were calculated from the % ctrl values using Assay Explorer software. Calculation: [y=(a−d)/(1+(x/c)^b)+d] a=low value, d=high value; x=conc M; c=IC50 M; b=hill; y=% ctrl.

[3] = target: Recombinant human Aurora B (amino acids 1-344) (Homo sapiens (Human), UniProt Q96GD4); assay: Aurora B Kinase Test (ADP Glo luminescence); format: biochemical
Chain of Recombinant human Aurora B (amino acids 1-344) (Q96GD4 whole entry, the tested form may be a part): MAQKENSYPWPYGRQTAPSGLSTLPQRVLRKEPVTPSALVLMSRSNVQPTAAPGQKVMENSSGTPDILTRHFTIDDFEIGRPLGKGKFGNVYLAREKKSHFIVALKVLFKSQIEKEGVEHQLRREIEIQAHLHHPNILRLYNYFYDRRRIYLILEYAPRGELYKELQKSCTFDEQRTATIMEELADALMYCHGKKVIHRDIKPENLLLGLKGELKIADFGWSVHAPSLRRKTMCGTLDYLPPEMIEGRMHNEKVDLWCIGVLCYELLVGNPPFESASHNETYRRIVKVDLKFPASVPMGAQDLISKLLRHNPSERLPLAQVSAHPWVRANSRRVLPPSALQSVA
Description: The activity of the Aurora B kinase protein was determined using the ADP Glo® Luminescence Kinase test (Promega; V9103X).
Serial Dilution is done in 1:10 steps in 100% DMSO.
Then 20 μl Kinase detection mix (Detection Buffer #V913B Promega; Kinase Detection Substrate #V914B Promega) were added and incubated for 40 minutes at room temperature.
as §2, with “measured RLU.” for “measured relative light units (RLU).”, “as 0%” for “as 100%”, “as 100%” for “as 0%”, “Calculation: [y=(a−d)/(1+(x/c)^b)+d],” for “Calculation: [y=(a−d)/(1+(x/c)^b)+d]”

[4] = Human Liver Microsomal Stability Test; format: in vitro ADME; conditions: human liver microsomes
Description: The metabolic degradation for a specific SYK-inhibitor is performed at 37° C. with pooled human liver microsomes (human liver microsomes are commercially available as “BD UltraPool™” by Corning Life Sciences, Fogostraat 12, 1060 LJ Amsterdam, The Netherlands). The final incubation volume of 100 μl per time point contains TRIS buffer pH 7.6 at RT (0.1 M), magnesium chloride (5 mM), microsomal protein (1 mg/ml) and the test compound at a final concentration of 1 μM.
Following a short preincubation period at 37° C., the reaction is initiated by addition of beta-nicotinamide adenine dinucleotide phosphate in its reduced form (NADPH, 1 mM) and terminated by transfering an aliquot into solvent after different time points. Additionally, the NADPH-independent degradation is monitored in incubations without NADPH, terminated at the last time point.
The quenched (terminated) incubations are then pelleted by centrifugation (10000 g, 5 min).
An aliquot of the supernatant is assayed by LC-MS/MS for the remaining amount of parent compound. The half-life (t½ INVITRO) is determined by the slope of the semilogarithmic plot of the concentration-time profile.
The intrinsic clearance (CL_[…]) is calculated by considering the amount of protein in the incubation: CL_[…] [μl/min/mg protein]=(Ln 2/(t½INVITRO [min]*protein content [mg/ml]))*1000
The protein content [mg/ml] was determined with the “Bicinchoninic Acid Kit” of Sigma Aldrich (commercially available).
The upscaled intrinsic Clearance (CL_UP_INT) is calcuated by considering the liver weight [g liver/kg body weight] and the microsomal recovery [mg protein/g liver]: CL_UP_INT [ml/min/kg]=0.001*CL_[…]*liver weight*microsomal recovery • with microsomal recovery=45 mg protein/g liver • with liver weight=25.7 g liver/kg body weight
The percent hepatic blood flow (% Qh) is finally calculated by considering the human liver blood flow Q [ml/min/kg]: % Qh [%]=((Q*CL_UP_INT)/(Q+CL_UP_INT)/Q)*100 • with liver blood flow (Q)=20.7 ml/min/kg.

[5] = target: Human GSK3beta (Homo sapiens (Human), UniProt P49841); assay: GSK 3β Kinase-Test (Z'-LYTE); format: biochemical; conditions: comparison compounds, read-out: IC50 in μM (GSK3beta-Inhibition)
Chain of Human GSK3beta (P49841 whole entry): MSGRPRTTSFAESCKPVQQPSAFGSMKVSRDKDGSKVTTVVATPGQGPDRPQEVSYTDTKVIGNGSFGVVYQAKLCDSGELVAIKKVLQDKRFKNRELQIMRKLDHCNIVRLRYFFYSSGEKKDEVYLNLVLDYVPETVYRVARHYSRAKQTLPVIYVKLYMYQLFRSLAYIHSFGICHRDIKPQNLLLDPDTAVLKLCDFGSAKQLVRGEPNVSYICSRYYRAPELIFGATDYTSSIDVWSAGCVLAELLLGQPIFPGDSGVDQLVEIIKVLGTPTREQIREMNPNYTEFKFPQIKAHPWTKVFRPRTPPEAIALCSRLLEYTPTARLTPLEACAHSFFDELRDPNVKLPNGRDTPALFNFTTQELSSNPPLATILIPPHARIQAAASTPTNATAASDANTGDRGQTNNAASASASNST
Description: Human GSK3beta (expressed and prified from SF21 cells) is obtained from the University Dundee/Scotland (Dr. James Hastie—Dept. of Biochemistry) in 50 mM Tris (pH7.5); 150 mM NaCl; 0.1 mM EGTA, 270 mM Succrose, 0.1% B-mercaptoethanol, 1 mM benzamidine, 0.2 mM PMSF; sequence see below). The enzyme is diluted to 3.56 μM (168 μg/ml) in enzyme dilution buffer and 6 μl aliquots are stored at −80° C.
The activity of GSK3 kinase protein is measured using the Z′-LYTE™ assay technology from Invitrogen (# PV3324).
The assay is performed in 384 black plates from Corning (#3676) in a final volume of 10 μl by adding 5 μl of kinase peptide mix and 2.5 μl of compound dilution. The reaction is started by addition of 2.5 μl of the 4×ATP solution.
as §1, with “ATP.” for “kinase.”, “kinase and without ATP” for “kinase”, “control). The non inhibited kinase reaction will result in a phosphorylation corresponding to 20%-30% of the phosphorylation control.” for “control).”
The reaction is performed 1 h at room temperature. After 1 h 5 μl of the development solution is added. After a further incubation for 1 h at room temperature 5 μl of the stop reagent is added. Finally the plates are read on a Flex Station II 384 (Molecular Devices).
The output text file is evaluated in an “MS-Excel-VB-Makro” and “GraphPadPrism” (Version 5) (GraphPad Software Inc.) is used to calculate the results. Data for the inhibition of GSK3beta are reported in M. data for the inhibition of the protease are reported in % CTL.

[6] = comparison compounds, Example numbers of WO 2011/092128, read-out: IC50 in μM (FLT3-Inhibition)
[7] = comparison compounds, Example numbers of WO 2011/092128, read-out: IC50 in μM (SYK-Inhibition)
[8] = comparison compounds, Example numbers of WO 2011/092128, read-out: IC50 in μM (AURB-Inhibition)
[9] = compounds of the invention (own Example numbers)
[10] = comparison compounds, Example numbers of WO 2013/014060, read-out: IC50 in μM (FLT3-Inhibition)
[11] = comparison compounds, Example numbers of WO 2013/014060, read-out: IC50 in μM (SYK-Inhibition)
[12] = comparison compounds, Example numbers of WO 2013/014060, read-out: IC50 in μM (AURB-Inhibition)
[13] = comparison compounds, Example numbers of WO 2013/014060
[14] = Example numbers of WO 2013/014060

Chain of FLT3 (P36888 564-958): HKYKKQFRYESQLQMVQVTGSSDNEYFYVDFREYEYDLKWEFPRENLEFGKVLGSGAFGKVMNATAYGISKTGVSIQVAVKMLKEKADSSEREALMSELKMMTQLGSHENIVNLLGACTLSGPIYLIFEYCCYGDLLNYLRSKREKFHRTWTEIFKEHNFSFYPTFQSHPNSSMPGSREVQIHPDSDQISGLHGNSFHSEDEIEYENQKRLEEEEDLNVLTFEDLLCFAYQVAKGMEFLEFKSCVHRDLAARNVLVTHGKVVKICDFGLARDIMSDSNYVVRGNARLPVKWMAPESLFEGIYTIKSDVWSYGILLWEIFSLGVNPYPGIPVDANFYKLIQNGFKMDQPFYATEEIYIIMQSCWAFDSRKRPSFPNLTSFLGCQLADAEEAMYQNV

Row | Molecule | IC50 [1, 10] [µM] | IC50 [2, 11] [µM] | IC50 [3, 12] [µM] | microsomal stability Cl [% Qh] [4, 13] [% Qh] | other results
1 | COc1ccc(-c2cc3nn(C)cc3c(O[C@H](C)[C@H]3CNC(=O)C3)n2)cc1OC [Example 1, (4R)-4-[(1R)-1-[6-(3,4-Dimethoxyphenyl)-2-methyl-pyrazolo[4,3-c]pyridin-4-yl]oxyethyl]pyrrolidin-2-one] | – | – | – | – | IC50 [1, 6]: 1.53 µM; IC50 [2, 7]: 0.009 µM; IC50 [3, 8]: 5.09 µM; microsomal stability Cl [% Qh] [4, 9]: <23 % Qh
2 | C[C@@H](Oc1nc(-c2cnn(C(C)(C)C)c2)cc2nn(C)cc12)[C@H]1CNC(=O)C1 [Example 2, (4R)-4-[(1R)-1-[6-(1-tert-Butylpyrazol-4-yl)-2-methyl-pyrazolo[4,3-c]pyridin-4-yl]oxyethyl]pyrrolidin-2-one] | 7.39 | 0.007 | 16.9 | 81 | microsomal stability Cl [% Qh] [4, 9]: <23 % Qh
3 | C[C@@H](Oc1nc(-c2cnn(C3CCCCC3)c2)cc2nn(C)cc12)[C@H]1CNC(=O)C1 [Example 7, (R)-4-((R)-1-(6-(1-cyclohexyl-1H-pyrazol-4-yl)-2-methyl-2H-pyrazolo[4,3-c]pyridin-4-yloxy)ethyl)pyrrolidin-2-one] | – | – | – | – | IC50 [1, 6]: 0.452 µM; IC50 ([5]; Example numbers of WO 2011/092128): > 10 µM; IC50 [2, 7]: 0.002 µM; IC50 [3, 8]: 2.33 µM; microsomal stability Cl [% Qh] ([4]; comparison compounds, Example numbers of WO 2011/092128): 79 % Qh
4 | C[C@@H](Oc1nc(-c2cnn(C3CCC(F)(F)CC3)c2)cc2nn(C)cc12)[C@H]1CNC(=O)C1 [Example 10, (4R)-4-[(1R)-1-[6-[1-(4,4-Difluorocyclohexyl)pyrazol-4-yl]-2-methyl-pyrazolo[4,3-c]pyridin-4-yl]oxyethyl]pyrrolidin-2-one] | 0.312 | 0.001 | 0.271 | 57 | IC50 [5, 14]: > 10 µM
5 | C[C@@H](Oc1cc(-c2cscn2)cc2nn(C)cc12)[C@H]1CNC(=O)C1 [Example 29, (4R)-4-[(1R)-1-(2-methyl-6-thiazol-4-yl-indazol-4-yl)oxyethyl]pyrrolidin-2-one] | – | – | – | 44 | IC50 [5, 14]: > 10 µM; IC50 ([3]; read-out: AURB-inhibition IC50-value): > 50 µM; IC50 ([3]; read-out: IC50 in μM (AURB-Inhibition)): 0.293 µM
6 | (4R)-4-[(1R)-1-[2-methyl-6-(3-methyl-1-tetrahydropyran-4-yl-pyrazol-4-yl)pyrazolo-[4,3-c]pyridin-4-yl]oxyethyl]-pyrrolidin-2-one [Example 79] | – | – | – | – | IC50 ([1]; read-out: FLT3-inhibition IC50-value): 26.7 µM; IC50 ([2]; read-out: SYK-inhibiton IC50-value): 0.0364 µM

Further lines, with some results ahead:

Row | IC50 [1, 10] [µM] | IC50 [2, 11] [µM] | IC50 [3, 12] [µM] | microsomal stability Cl [% Qh] [4, 13] [% Qh] | Molecule | other results
7 | 0.505 | 0.001 | 0.308 | 37 | C[C@@H](Oc1cc(-c2ccc(F)cn2)cc2nn(C)cc12)[C@H]1CNC(=O)C1 [Example 41, (4R)-4-[(1R)-1-[6-(5-fluoro-2-pyridyl)-2-methyl-indazol-4-yl]oxyethyl]pyrrolidin-2-one] | microsomal stability Cl [% Qh] ([4]; percent hepatic blood flow): <23 % Qh
8 | 0.618 | 0.002 | 0.63 | <23 | C[C@@H](Oc1cc(-c2ccc(C3CCN(C)CC3)cc2)cc2nn(C)cc12)[C@H]1CNC(=O)C1 [Example 42, (4R)-4-[(1R)-1-[2-methyl-6-[4-(1-methyl-4-piperidyl)-phenyl]indazol-4-yl]oxyethyl]-pyrrolidin-2-one] | microsomal stability Cl [% Qh] ([4]; percent hepatic blood flow): <23 % Qh
9 | 0.411 | 0.002 | 0.25 | <23 | C[C@@H](Oc1nc(-c2ccc(C(F)(F)F)nc2)cc2nn(C)cc12)[C@H]1CNC(=O)C1 [Example 61, (4R)-4-[(1R)-1-[2-methyl-6-[6-(trifluoromethyl)-3-pyridyl]pyrazolo[4,3-c]pyridin-4-yl]oxyethyl]pyrrolidin-2-one] | microsomal stability Cl [% Qh] ([4]; percent hepatic blood flow): <23 % Qh
10 | 0.514 | 0.003 | 0.949 | <23 | COc1cc(-c2cc3nn(C)cc3c(O[C@H](C)[C@H]3CNC(=O)C3)n2)ccc1OC(C)C [Example 81, (4R)-4-[(1R)-1-[6-(4-isopropoxy-3-methoxy-phenyl)-2-methyl-pyrazolo-[4,3-c]pyridin-4-yl]oxyethyl]-pyrrolidin-2-one] | microsomal stability Cl [% Qh] [4, 9]: <23 % Qh
11 | 0.049 | – | 2.54 | 26 | CCCn1cc(-c2cc(O[C@H](C)[C@H]3CNC(=O)C3)c3cccnc3c2)cn1 [compound 114] | IC50 [5, 14]: > 10 µM
